In paper PMC4445002, “Efficient inhibition of tumor angiogenesis and growth by a synthetic peptide blocking S100A4-methionine aminopeptidase 2 interaction” (Molecular Therapy. Methods & Clinical Development, 2015):

What was measured:
S100A4 [1] = assay: FRET acceptor-photobleaching analysis in live HeLa cells; format: binding; conditions: ECFP fusion cotransfected with EYFP-S100A4, acceptor photobleaching, n = 8–11, **P < 0.01, ***P < 0.001
MetAP2 [2] = tested on: MetAP2; parameters: method as in PMID 16790550, PMID 22229417; conditions: cited from earlier work
ERK1/2 = tested on: ERK1/2; parameters: method as in PMID 19716858; conditions: cited from earlier work
MetAP2 [3] = conditions: cited from earlier work
S100A4 [4] = assay: Surface plasmon resonance binding to GST-S100A4; conditions: Biacore 3000, captured GST-S100A4, SBD 1 mmol/l, HBS-P pH 7.4, with or without 1 mmol/l CaCl2, 25 °C, duplicated experiment
Text: The binding of the SBD peptide to S100A4 was examined by Surface plasmon resonance (SPR) with a Biacore 3000 biosensor and GST Capture kit (GE Healthcare, Little Chalfont, UK) according to the manufacturer’s instructions. Goat anti-GST antibody was immobilized on two flow cells of the sensor chip (CM-5) using a standard amine coupling procedure, and then recombinant GST-S100A4 or GST as a negative control was captured. The SBD peptide (1 mmol/l) in HBS-P running buffer (10 mmol/l Hepes, pH 7.4, 150 mmol/l NaCl, 0.005% P20) in the presence or absence of 1 mmol/l CaCl2 was injected over two flow cells of the chip at a flow rate of 10 ml/minute at 25 °C for 5 minutes. The response from the control surface was subtracted, and the data plotted as Resonance Units (RU).

[5] = tested on: S100A4-MetAP2 interaction; assay: In vitro GST pull-down binding assay S100A4-MetAP2

With “ECFP-NBD: NBD sequence subcloned into pECFP-C1, expressed in HeLa cells (REAAEAHRQVRKYVMSWIKPGMTMIEICEKLEDCSRKLI; left off: ECFP, end not stated, kept)” as the compound, how does the “FRET efficiency with EYFP-S100A4 vs negative controls” value (S100A4 [1]) read?
The value was “significantly higher than those in respective negative controls”.

Which “FRET efficiency with EYFP-S100A4 vs negative controls” value (S100A4 [1]) does the source give for “ECFP-CBD: CBD sequence subcloned into pECFP-C1, expressed in HeLa cells (TMIEICEKLEDCSRKLIKENGLNAGLAFPTGCSLNNCA; left off: ECFP, end not stated, kept)” here?
Its value is “but not for ECFP-CBD/EYFP-S100A4 (orange bars), were significantly higher than those in respective negative controls”.

With CO[C@@H]1[C@H](OC(=O)NC(=O)CCl)CC[C@]2(CO2)[C@H]1[C@@]1(C)O[C@@H]1CC=C(C)C [TNP-470] as the compound, how does the antiangiogenic activity (MetAP2 [2]) read?
The antiangiogenic activity was “potent antiangiogenic agents”.

Which antiangiogenic activity (MetAP2 [2]) does the source give for CO[C@@H]1[C@H](OC(=O)/C=C/C=C/C=C/C=C/C(=O)O)CC[C@]2(CO2)[C@H]1[C@@]1(C)O[C@@H]1CC=C(C)C [Fumagillin, fumagillin] here?
The antiangiogenic activity was “potent antiangiogenic agents”.

And the “effect on ERK1/2 activity and cell growth” value (ERK1/2)?
The value was “inhibition of the activity of ERK1/2 and cell growth”.

What about the “effect on MetAP2 auto-proteolytic activity” value (MetAP2 [3]) of the same compound?
The value was “inhibits MetAP2’s auto-proteolytic activity”.

What about the “effect on MetAP2 turnover rate” value (MetAP2 [3]) of the same compound?
Its value is “decreases its turnover rate”.

What does the source list for “SBD: 60 amino acid residues spanning from Arg170 to Ala229 of MetAP2 (REAAEAHRQVRKYVMSWIKPGMTMIEICEKLEDCSRKLIKENGLNAGLAFPTGCSLNNCA)”?
binding to S100A4 (SPR) (S100A4 [4]): occurred only in the presence of Ca^2+; inhibition of S100A4-MetAP2 interaction (GST pull-down) ([5]; [35S]MetAP2, GST/S100A4, 1 mmol/l CaCl2, peptide at 25-fold molar excess of MetAP2): efficiently blocked the interaction between S100A4 and MetAP2

With methionine aminopeptidase 2 [MetAP2] as the compound, how does the “binding of MetAP2 to S100A4 (GST pull-down)” value ([5]; [35S]MetAP2, GST/S100A4, 1 mmol/l CaCl2 or 1 mmol/l EDTA) read?
The value was “S100A4 bound to MetAP2 in a Ca^2+-dependent manner”.

With “ECFP-SBD: SBD sequence subcloned into pECFP-C1, expressed in HeLa cells (REAAEAHRQVRKYVMSWIKPGMTMIEICEKLEDCSRKLIKENGLNAGLAFPTGCSLNNCA; left off: ECFP, end not stated, kept)” as the compound, how does the “FRET efficiency with EYFP-S100A4 vs negative controls” value (S100A4 [1]) read?
Its value is “significantly higher than those in respective negative controls”.
